The text below walks through data of patent publication US5614370A, “Assay to identify human C5a antagonists and agonists” (Merck & Co., Inc., priority 1994, dated 1997).

For experiment [1], the target named is T1, C5a receptor (Homo sapiens, UniProt P21730).
T1 construct: followed by a 20 μL aliquot of neutrophil membrane; endogenous in cells
T1 sequence (P21730 1-350): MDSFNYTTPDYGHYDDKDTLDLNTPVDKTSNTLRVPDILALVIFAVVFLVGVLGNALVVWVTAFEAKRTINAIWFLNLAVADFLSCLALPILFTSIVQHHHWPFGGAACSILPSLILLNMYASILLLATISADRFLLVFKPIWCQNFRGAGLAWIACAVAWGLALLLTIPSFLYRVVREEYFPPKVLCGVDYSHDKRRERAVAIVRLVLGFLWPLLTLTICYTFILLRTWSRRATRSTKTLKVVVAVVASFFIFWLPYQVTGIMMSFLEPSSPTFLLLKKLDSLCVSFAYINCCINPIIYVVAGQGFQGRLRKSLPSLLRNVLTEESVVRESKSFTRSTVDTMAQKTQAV
Description: Competition binding against 125I-labeled intact C5a on human neutrophil (PMN) membranes. Conditions: for IC50: labeled ligand 125I-C5a, read-out: IC50 exhibited by the unlabeled ligand. The text has this:
The affinity of these peptides is shown, for example, by radiolabeling intact C5a, and using the unlabeled peptide to compete the labeled C5a from C5a receptor binding sites on cellular membranes. Preparations of polymorphonuclear leukocytes (PMN's) are known to express the C5a receptor, (inhibition of the chemotactic response to C5a of this type of cell is one desirable utility for compounds identified by the instant assay). One method for preparing these membranes is described by Rollins, T. E. et al., [J. Biol. Chem. 264:520-526 (1988); see also U.S. Pat. No. 5,177,190, herein incorporated by reference as a method for isolating and purifying C5a receptor]. Briefly, this involves isolating PMN's in large quantity, disrupting these cells and obtaining the membrane fraction by centrifugation. Protein assay of the membrane preparation allows for standardization of the amount of protein added in any set of membrane binding experiments.
(§1) In FIG. 1, unlabeled C013 is used to compete with ^125 I-labeled C5a. […] In FIG. 2, the C013 is ^125 I labeled. Unlabeled C5a and unlabeled C013 are each used to compete the labeled C013 from C5a binding sites on the membranes. […] In FIG. 3a, ^125 I-C5a is competed from its binding site by unlabeled C064 and unlabeled, natural C5a (as opposed to recombinant C5a, which, however, may also obviously may be used for these purposes). […] In FIG. 3b, the inverse experiment is shown, wherein ^125 I-C064 is displaced by unlabeled C064 and unlabeled nC5a.
Hexapeptides within this class differing only at position X have similar affinities for the C5a receptor. As measured in competition binding experiments against ^125 I-C5a on human neutrophil membranes their IC50 's varied by only a factor of 3, from 25 to 80 nM (Table II):
^2 Binding experiments were carried out with human neutrophil
Binding is initiated by an addition of 20 μL of PMN membrane (typically 0.5 μg of protein) to each tube. After incubation for 90 min. at room temperature 2 ml of 0.05 M HEPES, pH 7.2, containing 0.5% BSA are added to the tube, the contents vortexed and filtered over a Whatman GF/C filter which has been soaked in 0.3% polyethylenimine. An additional 2 ml of buffer are added to the tube and used to wash the filter. All of the test samples are dissolved in DMSO, another water miscible organic solvent, or in an aqueous solvent. Non-specific background was determined by inclusion of a 100-fold excess of unlabeled C5a.
The percent inhibition is calculated according to the following formula: [formula]
Iodination of C5a was carded out with the use of chloramine T. (Rollins, T.E., and Springer, M.S. (1985) J. Biol. Chem. 260, 7157-7160). […] Concentrations of C5a were determined by amino acid analysis and by RIA (Amersham Corp.). Membranes were prepared from human PMN as described by Rollins, T.E., Sciliano, S and Springer, M.S., J. Biol Chem 264 520-526 (1988).

The target of experiment [2] is T1, C5a receptor. Description: biochemical. In kind it is binding. Conditions: for IC50: read-out: IC50 exhibited by the unlabeled ligand. The protocol: Initially, we attempted to conduct binding studies with ^125 I radiolabeled C009: ^125 I-Tyr Phe Lys Ala Cha Cha Leu dPhe Arg, SEQ.ID:1:, wherein Cha is cyclohexylalanine, and dPhe is the D isomer of phenylalanine. This compound is a C5a agonist displaying a Ki for C5a of 8 nM. The presence of the tyrosine allowed us to radioiodinate the peptide and establish a binding assay in which both C5a (IC50=0.1 nM) and unlabeled C009 (IC50 =10 nM) inhibit the binding of ^125 I-C009 with concentration dependencies similar to those obtained from competition experiments against ^125 I-C5a.
as §1
Peptide (5 nMoles) are added to 40μL of 0.1 M sodium phosphate, pH 7.6, in a tube, followed by 2 mCi of ^125 I in 20 μL. 10 μL of a freshly made 0.5 mg/mL solution of chloramine T is then added. After 30 seconds of incubation, 10 μL of a freshly prepared 2 mg/mL solution of Na2 S2 O3 is added, the tube is vortexed, and the sample loaded onto a Vydac C4 reverse phase column. The column is developed with a TFA/acetonitrile gradient and the iodinated peptide is isolated. The material is stored at 4° C. in the elution buffer.
To 205 μL binding buffer (50 mM HEPES, pH 7.2, containing 5 mM MgCl2, 1mM CaCl2, 0.5% BSA) in a polypropylene tube is added 30,000CPM of the ^125 I peptide in 20 μL, and 5 μL of a known dilution of the test compound or diluent, followed by a 20 μL aliquot of neutrophil membrane [equivalent to 500,000 neutrophils; Rollins, T.E. et al., J. Biol Chem. 260:7157 (1985); see also U.S. Pat. No. 5,177,190, herein incorporated by reference].
The assay mixture is incubated for 2 hours at 29° C. Binding buffer (2 mL) is then added, the tube is vortexed, and the contents filtered over a Wattmann GF/C filter soaked in 0.33% polyethylenimine. An additional aliquot of binding buffer (2 mL) is added to the tube to rinse the tube, and is then used to wash the filter. The filters are removed from the apparatus and counted. Non-specific backgrounds are determined by performing assays in the presence of either 10 nM C5a, or 1 μM unlabeled peptide. Compounds which inhibit the binding of the labeled peptide are considered to be potential active compounds.

The test system of a further experiment is human neutrophils. The experiment can be described thus: Degranulation, myeloperoxidase (MPO) release from human neutrophils (agonism). In kind it is cell-based. Conditions: 0.4 nM C5a or 8 nM IL-8, cells without C089. As to the method:
FIG. 5A and 5B. Degranulation and Ca^2+ responses to the hexapeptides. […] The ED50 's for the degranulation are: C5a, 0.5 nM; C028, 0.2 μM; C026, 1 μM. C5a, maximally, released 57% of the total cellular content of MPO. The ability of these molecules to elicite a Ca^2+ -flux is shown in B. The concentrations used for C028 (10 μM), C026 (10 μM), C061 (100 μM) are those which produce a maximal flux. A saturating concentration was also used for C5a (1 nM).
This assay was performed on human neutrophils as previously reported and it is a measure of C5a or peptide induced exocytosis (Rollins, T. E. and Springer, M. S. (1985) J. Biol. Chem. 260, 7157-7160).
The functional properties of two of the peptides, C026, and C028, were originally described by Mollison et. al (Mollison, K. W., Krause, R. A., Fey, T. A., Miller, L., Wiedeman, P. e., Kawai, M., Lane, B., Luly, J. R. and Carter, G. W. (1992) FASEB J. 6, A2058). […] We have reinvestigated the degranulating activities of these peptides as measured by the release of myeloperoxidase (MPO) from human neutrophils. […] The EC50 /IC50 (degranulation/binding) for C028 is 8, the same as that measured for C5a (Table II, FIG. 5A). […] However, the difference in activity between C026 and C028 is significant and reproducible. Since the structural difference between the two is the substitution of an aromatic for an aliphatic residue (Phe for Cha) we chose to make additional changes at position 5 which further increased aromaticity. […] To further examine whether the differences in activity between the peptides reflects the increased aromaticity we synthesized a molecule with Leu, an aliphatic amino acid, at position 5 (C068, Table II).

Non-standard residues stand in square brackets, D forms with d. Residues, ends and D or L forms follow the SMILES beside them. No end group written: not given here. Cha = N[C@@H](CC1CCCCC1)C(=O)O; dCha = N[C@H](CC1CCCCC1)C(=O)O

For the molecule `CC(C)C[C@H](NC(=O)CNC(=O)[C@H](CC1CCCCC1)NC(=O)[C@H](C)NC(=O)[C@H](CCCCN)NC(=O)[C@H](Cc1ccccc1)NC(=O)[C@@H](N)Cc1ccc(O)cc1)C(=O)N[C@H](Cc1ccccc1)C(=O)N[C@@H](CCCNC(=N)N)C(=O)O` [C013, Tyr Phe Lys Ala Cha Gly Leu dPhe Arg] (H-YFKA[Cha]GL[dF]R-OH), the IC50 stood at 14 nM at C5a receptor [1] and 1 nM on C5a receptor [2] (labeled ligand 125I-C013). Besides, the “binding affinity relative to 125I-C009” value on C5a receptor [2] is recorded as “about 30 fold”.

With `CSCC[C@H](NC=O)C(=O)N[C@@H](CC(C)C)C(=O)N[C@@H](Cc1ccccc1)C(=O)O` [fMLP, N-formyl-methionyl-leucyl-phenylalanine, reference compound], on C5a receptor [2] (125I-C009 for fMLP and IL-8, COOH-terminal peptides for L-584,020), the “effect on binding of C5a COOH-terminal peptides in words” value is recorded as “neither”. As for IL-8: chemokine IL-8, the “release of total cellular MPO” value with human neutrophils is given as 19%. Consider “Tyr Phe Lys Pro dCha Cha dArg (YFKP[dCha][Cha][dR]) [C064, name also used for the 125I-Tyr peptide]”, for which the IC50 was found to be 8 nM with C5a receptor [1] and 1.5 nM with C5a receptor [2] (labeled ligand 125I-C064). In addition, the “non-specific binding of the labeled peptide” value with C5a receptor [2] was “low non-specific binding”. On to “^125 I-Tyr Phe Lys Ala Cha Cha Leu dPhe Arg [125I-C009]”, for which the “non-specific binding of the labeled peptide” value on C5a receptor [2] was “high non-specific binding”.

B1: 125I-C5a: C5a iodinated with chloramine T (100-200 mCi/mg) (protein, UniProt P01031 678-751, looked up)
C5a anaphylatoxin: TLQKKIEEIAAKYKHSVVKKCCYDGACVNNDETCEQRAARISLGPRCIKAFTECCVVASQLRANISHKDMQLGR
modifications: C5a anaphylatoxin 125I label
As for B1, the “affinity of radioiodinated C5a in words” value with C5a receptor [1] (100-200 mCi/mg) is listed as “same affinity for the receptor as did the nonderivatized protein”.
